Test results as given in US8680114B2, “AKT protein kinase inhibitors” (Array Biopharma, Inc., priority 2003, dated 2014).

Target: full-length human recombinant active AKT-1 (Homo sapiens, UniProt P31749)
Test: AKT-1 kinase assay (IMAP fluorescence polarization, phosphorylation of fluorescently-labeled peptide)
Assay type: biochemical
Conditions: AKT-1 IMAP assay, qualitative statement, values not given
From the text: The activity of the compounds described in the present invention may be determined by the following procedure: This procedure describes a kinase assay that measures the phosphorylation of a fluorescently-labeled peptide by full-length human recombinant active AKT-1 by fluorescent polarization using a commercially available IMAP kit.
The assay materials come from an IMAP AKT Assay Bulk Kit, product #R8059, from Molecular Devices, Sunnyvale, Calif. The kit materials include an IMAP Reaction Buffer (5×): The diluted 1×IMAP Reaction Buffer contains 10 mM Tris-HCl, pH 7.2, 10 mM MgCl2, 0.1% BSA, 0.05% NaN3. DTT is routinely added to a final concentration of 1 mM immediately prior to use.
Also included are IMAP Binding Buffer (5×), and IMAP Binding Reagent. The Binding Solution is prepared as a 1:400 dilution of IMAP Binding Reagent into 1×IMAP Binding Buffer.
Fluorescein-labeled AKT Substrate (Crosstide), having the sequence (F1)-GRPRTSSFAEG. A stock solution of 20 μM is made up in 1×IMAP Reaction Buffer.
The plates used include a Costar 3657 ([…] made of polypropylene and having a white, v-bottom) that is used for compound dilution and for preparing the compound-ATP mixture. The assay plate was the Packard ProxyPlate™-384 F.
The AKT-1 used was made from full-length, human recombinant AKT-1 that is activated with PDK1 and MAP kinase 2.
The assay procedure starts the preparation of stock solutions of compounds at 10 mM in DMSO. The stock solutions and the control compound are serially diluted 1:2 nine times into DMSO (10 μL of compound+10 μL of DMSO) to give 50× dilution series over the desired dosing range. […]
The assay is initiated by the addition of 2.5-μL aliquots of a solution containing 200 nM of fluorescently-labeled peptide substrate and 4 nM AKT-1. […] The reaction is then quenched by the addition of 15 μL of Binding Solution, centrifuged again and incubated for an additional 30 minutes at ambient temperature prior to reading on a Victor 1420 Multilabel HTS Counter configured to measure fluorescence polarization.

Chain of full-length human recombinant active AKT-1 (P31749 whole entry): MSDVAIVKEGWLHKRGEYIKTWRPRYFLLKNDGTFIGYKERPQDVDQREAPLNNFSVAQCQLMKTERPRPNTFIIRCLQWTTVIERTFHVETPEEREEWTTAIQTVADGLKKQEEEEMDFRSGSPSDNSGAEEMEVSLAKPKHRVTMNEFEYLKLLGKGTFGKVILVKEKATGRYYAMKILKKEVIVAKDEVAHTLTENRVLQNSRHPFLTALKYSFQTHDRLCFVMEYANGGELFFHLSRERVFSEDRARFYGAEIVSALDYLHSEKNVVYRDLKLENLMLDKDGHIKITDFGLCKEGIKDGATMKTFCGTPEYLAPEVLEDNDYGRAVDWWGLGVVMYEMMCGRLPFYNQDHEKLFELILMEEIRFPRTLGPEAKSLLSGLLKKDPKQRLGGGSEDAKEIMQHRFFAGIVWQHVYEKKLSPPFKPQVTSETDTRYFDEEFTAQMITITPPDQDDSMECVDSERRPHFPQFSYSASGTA

activity for inhibiting AKT protein kinases | Structure (SMILES)
showed activity | N[C@H](Cc1ccc(Cl)cc1)C(=O)N1CCN(c2ccnc3ccsc23)CC1 [Example 24, (2R)-2-amino-3-(4-chlorophenyl)-1-(4-thieno[3,2,b]pyridin-7-yl-piperazin-1-yl)-propan-1-one dihydochloride]
showed activity | N[C@H](Cc1ccc2ccccc2c1)C(=O)N1CCN(c2ncnc3ccccc23)CC1 [Example 11, (2R)-2-Amino-3-(2-naphthyl)-1-(4-quinazolin-4-yl-piperazin-1-yl)-propan-1-one]
showed activity | N[C@H](Cc1ccc(Cl)cc1)C(=O)N1CCN(c2ncnc3ccccc23)CC1 [Example 9, (2R)-2-Amino-3-(4-chlorophenyl)-1-(4-quinazolin-4-yl-piperazin-1-yl)-propan-1-one]
